Measured values as given in patent publication US20240100075A1, “Synthetic Compositions Comprising LNFP III and LSTa” (FrieslandCampina Nederland B.V., priority 2020, published 2024).

Tests used:
Format in all cases: cell-based, human
[1] = test system: Interleukin-6 (IL-6); experiment: Cytokine analysis (Cytometric Bead Array) in PBMC supernatant, IL-6; conditions: PBMCs of 3 donors, 0.5 g/l, 24 h, FIG. 8, compared with control
Protocol: BDTM Cytometric Bead Array (CBA) Human Th1/Th2/Th17 Cytokine Kit (560484, BD) was used to measure Interleukin-6 (IL-6) and Interleukin-10 (IL-10) protein levels in supernatant following the manufacturer's instructions. After acquiring samples on the FACS (Easycyte 8HT), the FCAP ArrayTM software was used to determine cytokine concentrations. PBMC's from 3 donors were isolated from a buffy coat using Sepmate tubes. The cells were diluted to a concentration of 1*10^7 cells per ml. The PBMC's were seeded in 6 wells plates and treated with 0.5 g/l of 2'-FL or a mix of […] in PBMC culturing medium for 24 h. Cells incubated with no HMOs were used as control. The supernatants from these cultures were collected and BDTM Cytometric Bead Array (CBA) Human Th1/Th2/Th17 Cytokine Kit (560484, BD) was used to measure Interleukin-6 (IL-6) and Interleukin-10 (IL-10) protein levels in supernatant following the manufacturer's instructions. After acquiring samples on the FACS (Easycyte 8HT), the FCAP ArrayTM software was used to determine cytokine concentrations.

[2] = test system: Interleukin-10 (IL-10); experiment: Cytokine analysis (Cytometric Bead Array) in PBMC supernatant, IL-10; conditions: for effect on the expression of IL10 (summary statement): PBMC, single HMOs and total pool of HMO, method not given
Protocol: BD™ Cytometric Bead Array (CBA) Human Th1/Th2/Th17 Cytokine Kit (560484, BD) was used to measure Interleukin-6 (IL-6) and Interleukin-10 (IL-10) protein levels in supernatant following the manufacturer's instructions. After acquiring samples on the FACS (Easycyte 8HT), the FCAP Array™ software was used to determine cytokine concentrations.
PBMC's from 3 donors were isolated from a buffy coat using Sepmate tubes. The cells were diluted to a concentration of 1*10^7 cells per ml. The PBMC's were seeded in 6 wells plates and treated with 0.5 g/l of 2′-FL or a mix of LNFP-III with LSTa 1:1 w/v in PBMC culturing medium for 24 h. Cells incubated with no HMOs were used as control. The supernatants from these cultures were collected and BD™ Cytometric Bead Array (CBA) Human Th1/Th2/Th17 Cytokine Kit (560484, BD) was used to measure Interleukin-6 (IL-6) and Interleukin-10 (IL-10) protein levels in supernatant following the manufacturer's instructions. After acquiring samples on the FACS (Easycyte 8HT), the FCAP Array™ software was used to determine cytokine concentrations.

[3] = test system: FoxP3; experiment: Intracellular staining of transcription factors in PBMCs (FACS), FoxP3; conditions: PBMC, single HMOs and total pool of HMO; method not given
Protocol: (§1) For intracellular staining PBMCs from 3 donors were incubated with the mentioned HMOs (0.5 g/1) for 24 h prior to analysis. In a 96-wells plate 5*10^5 PBMCs were pelleted at 300 g for 4 minutes. Subsequently, the cells were blocked using 25 μL of blocking buffer (Human BD Fc Block™,BD) and incubated for 10 minutes at room temperature. Then, 25 μL of anti-CD4 FITC (555346, BD) and anti-CD3 APC (555335, BD) were added to each test. The cells were incubated 30 minutes on ice. After the cells were washed twice with Stain Buffer (FBS) (554657, BD) an intracellular staining for the transcription factors was performed by the Transcription Factor Buffer Set (562574, BD). FoxP3 PE (560852, BD) and RORγT PE (563081, BD) were used. Cells were analyzed with FACS (Easycyte 8HT). Expression of FoxP3 and RORγT was analyzed in the CD4-positive cells.
PBMC's from 3 donors were isolated from a buffy coat using Sepmate tubes. The cells were diluted to a concentration of 1*10^7 cells per ml. The PBMC's were seeded in 6 wells plates and treated with 0.5 g/l of 2′-FL or a mix of LNFP-III with LSTa 1:1 w/v in PBMC culturing medium for 24 h. Cells incubated with no HMOs were used as control. For Fluorescence Activated Cell Sorting (FACS), 5*10^5 PBMCs were pelleted at 300 g for 4 minutes in a 96-well plate.
as §1, with “Subsequently,” for “For intracellular staining PBMCs from 3 donors were incubated with the mentioned HMOs (0.5 g/1) for 24 h prior to analysis. In a 96-wells plate 5*10^5 PBMCs were pelleted at 300 g for 4 minutes. Subsequently,”, “8HT).” for “8HT). Expression of FoxP3 and RORγT was analyzed in the CD4-positive cells.”

[4] = test system: IL23A; experiment: RNA sequencing in PBMCs, IL23A gene expression; conditions: PBMCs of 3 donors, 0.5 g/l HMO, 6 h, Polymyxin B as control, FIG. 4
Protocol: (§2) Peripheral blood mononuclear cells (PBMCs) were isolated from a buffy coat using Sepmate tubes. The cells were diluted to a concentration of 1*10^7 cells per ml. The PBMC's were seeded in 6 wells plates and treated with 0.5 g/l of each HMO in PBMC culturing medium for 6 h prior to RNA isolation. Each human milk oligosaccharide (HMO) was mixed with 100 ug/ml (microgram/milliliter) final concentration of Polymyxin B to ensure neutralization of possible endotoxin contamination of HMOs, while equal amounts of Polymyxin B were used as a control. As a positive control HMOs isolated from pooled human milk sample were used. Single HMOs were purchased from BOC Sciences.
(§3) 2500 ng RNA, isolated from PBMCs of 3 donors, was translated into cDNA, using the quantitect reverse transcription kit (Qiagen). RNA sequencing and analysis was performed by use of the NOVOGENE platform according to standard procedures. Gene expression is shown for CSF3, CD25 (IL2RA), IL12B and IL23A as regulated by the pool of HMOs as isolated from human milk (pHMOs), LNFP-III, LSTa and DSLNT.
(§4) PBMC's from 3 donors were isolated from a buffy coat using Sepmate tubes. The cells were diluted to a concentration of 1*10^7 cells per ml. […]
(§5) 2500 ng RNA, isolated from PBMCs, was translated into cDNA, using the quantitect reverse transcription kit (Qiagen). […]

[5] = test system: IL12B; experiment: RNA sequencing in PBMCs, IL12B gene expression; conditions: PBMCs of 3 donors, 0.5 g/l HMO, 6 h, Polymyxin B as control, FIG. 3
Protocol: as §2, §3
as §2, with “PBMC's from 3 donors” for “Peripheral blood mononuclear cells (PBMCs)”, “HMO” for “human milk oligosaccharide (HMO)”, “ug/ml” for “ug/ml (microgram/milliliter)”
as §3, with “from PBMCs,” for “from PBMCs of 3 donors,”, “expression was” for “expression is”

[6] = test system: CD25 (IL2RA); experiment: RNA sequencing in PBMCs, CD25 (IL2RA) gene expression; conditions: PBMCs of 3 donors, 0.5 g/l HMO, 6 h, Polymyxin B as control, FIG. 2
Protocol: as §2, §3
as §2, with “PBMC's from 3 donors” for “Peripheral blood mononuclear cells (PBMCs)”, “HMO” for “human milk oligosaccharide (HMO)”, “ug/ml” for “ug/ml (microgram/milliliter)”
as §3, with “from PBMCs,” for “from PBMCs of 3 donors,”, “expression was” for “expression is”

[7] = test system: CSF3; experiment: RNA sequencing in PBMCs, CSF3 gene expression; conditions: PBMCs of 3 donors, 0.5 g/l HMO, 6 h, Polymyxin B as control, FIG. 1
Protocol: as §2, §3, §4, §5

Compound	expression of IL6, result in words [1]	effect on the expression of IL10 (summary statement) [2]	expression of IL10 (protein level in supernatant) ([2]; PBMCs of 3 donors, 0.5 g/l, 24 h, FIG. 7, mixture value is average)	effect on the expression of FoxP3 (summary statement) [3]	expression of IL23A [4]	expression of IL12B [5]	expression of CD25 [6]	relative expression of CSF3 [7]
2′-fucosyllactose [2′FL, reference compound]	no expression	no effect	less than 3 pg/ml	no effect	–	–	–	–
CC(=O)N[C@H]1[C@H](O[C@H]2[C@@H](O)[C@@H](CO)O[C@@H](O[C@H]3[C@H](O)[C@@H](O)C(O)O[C@@H]3CO)[C@@H]2O)O[C@H](CO)[C@@H](O)[C@@H]1O[C@@H]1O[C@H](CO)[C@H](O)[C@H](O[C@]2(C(=O)O)C[C@H](O)[C@@H](NC(C)=O)[C@H]([C@H](O)[C@H](O)CO)O2)[C@H]1O (stereo partly drawn) [LSTa, α-Neu5Ac-(2→3)-β-D-Gal-(1→3)-β-D-GlcNAc-(1→3)-β-D-Gal-(1→4)-Glc]	–	increase	–	increase	about 4.4	about 3	around 6.3	–
α-Neu5Ac-(2→3)-β-D-Gal-(1→3)-[α-Neu5Ac-(2→6)]-β-D-GlcNAc-(1→3)-β-D-Gal-(1→4)-Glc [DSLNT]	–	–	–	–	–	about 2.5	around 5.5	around 4
β-D-Gal-(1→4)-[α-L-Fuc-(1→3)]-β-D-GlcNAc-(1→3)-β-D-Gal-(1→4)-D-Glc [LNFP III]	–	increase	–	increase	about 4.3	about 2.5	around 5.8	–
